What was measured:
Type in all cases: in vivo
[1] = system: johnsongrass (Sorghum halepense, SORHA); assay: Post-emerge test, greenhouse herbicide activity screening; details: post-emerge, 14 days after application, rating scale 0-100
Outline: (§1)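 Herbicidal damage is scored 0 (none) to 100 (complete plant death) two weeks after a simulated field spray. Rates span 15–1000 g ai/ha, delivered in acetone at 187 l/ha. For post-emergence treatments, plants have 2–3 leaves and the spray carries 0.25% v/v non-ionic surfactant.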

[2] = system: barnyardgrass (Echinochloa crus-galli, ECHCG); assay: as above; details: post-emerge, 14 days after application, rating scale 0-100
Outline: as §1

[3] = system: lambsquarters (Chenopodium album, CHEAL); assay: as above; details: post-emerge, 14 days after application, rating scale 0-100
Outline: as §1

[4] = system: large crabgrass (Digitaria sanguinalis, DIGSA); assay: as above; details: post-emerge, 14 days after application, rating scale 0-100
Outline: as §1

[5] = system: redroot pigweed (Amaranthus retroflexus, AMARE); assay: as above; details: post-emerge, 14 days after application, rating scale 0-100
Outline: as §1

[6] = system: sicklepod (Cassia obtusifolia, CASOB); assay: as above; details: post-emerge, 14 days after application, rating scale 0-100
Outline: as §1

[7] = system: green foxtail (Setaria viridis, SETVI); assay: as above; details: post-emerge, 14 days after application, rating scale 0-100
Outline: as §1

[8] = system: ivyleaf morningglory (Ipomoea hederacea, IPOHE); assay: as above; details: post-emerge, 14 days after application, rating scale 0-100
Outline: as §1

[9] = system: velvetleaf (Abutilon theophrasti, ABUTH); assay: as above; details: post-emerge, 14 days after application, rating scale 0-100
Outline: as §1

[10] = system: field corn (Zea mays L., var. Dekalb 535, CORN); assay: Pre-emerge test, crop safety; details: rated 14 days after application, 0 = no damage, 100 = complete death
Outline: (§2)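 Applied at 15–1000 g ai/ha from acetone in 187 l/ha spray volume. Post-emergence applications included 0.25% v/v non-ionic surfactant and reached plants sown 8–21 days before. Pre-emergence applications were incorporated by surface watering. Efficacy or crop damage was rated on a 0–100 scale after 14 days.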

[11] = system: upland rice (Oryza sp., var. Tebonnet, RICE); assay: Pre-emerge test, crop safety; details: rated 14 days after application, 0 = no damage, 100 = complete death
Outline: as §2

[12] = system: johnsongrass (Sorghum halepense, SORHA); assay: Pre-emerge test, greenhouse herbicide activity screening; details: rated 14 days after application, 0 = no damage, 100 = complete death
Outline: as §2

[13] = system: barnyardgrass (Echinochloa crus-galli, ECHCG); assay: as above; details: rated 14 days after application, 0 = no damage, 100 = complete death
Outline: as §2

[14] = system: lambsquarters (Chenopodium album, CHEAL); assay: as above; details: rated 14 days after application, 0 = no damage, 100 = complete death
Outline: as §2

[15] = system: large crabgrass (Digitaria sanguinalis, DIGSA); assay: as above; details: rated 14 days after application, 0 = no damage, 100 = complete death
Outline: as §2

[16] = system: sicklepod (Cassia obtusifolia, CASOB); assay: as above; details: rated 14 days after application, 0 = no damage, 100 = complete death
Outline: as §2

[17] = system: green foxtail (Setaria viridis, SETVI); assay: as above; details: rated 14 days after application, 0 = no damage, 100 = complete death
Outline: as §2

[18] = system: ivyleaf morningglory (Ipomoea hederacea, IPOHE); assay: as above; details: rated 14 days after application, 0 = no damage, 100 = complete death
Outline: as §2

[19] = system: velvetleaf (Abutilon theophrasti, ABUTH); assay: as above; details: rated 14 days after application, 0 = no damage, 100 = complete death
Outline: as §2

[20] = system: redroot pigweed (Amaranthus retroflexus, AMARE); assay: as above; details: rated 14 days after application, 0 = no damage, 100 = complete death
Outline: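 Rating: 0–100 visual injury, 14 DAA. Application: acetone, 187 l/ha, 15–1000 g ai/ha, flat-fan track sprayer with nozzle 40–45 cm above soil or canopy. Post-emerge runs used 0.25% v/v surfactant on 2–3 leaf plants.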

[21] = system: field corn (Zea mays L., var. Dekalb 535, CORN); assay: Post-emerge test, crop safety; details: post-emerge, 14 days after application, rating scale 0-100
Outline: as §2

[22] = system: upland rice (Oryza sp., var. Tebonnet, RICE); assay: Post-emerge test, crop safety; details: post-emerge, 14 days after application, rating scale 0-100
Outline: as §2

COc1c(Cl)cc(F)c(-n2c(=O)cc(C(F)(F)F)n(C)c2=O)c1NC(=O)C(C)=Cc1ccccc1 [2-81]
phytotoxicity rating SORHA ([1]; 63 g ai/ha): 20
phytotoxicity rating SORHA ([1]; 250 g ai/ha): 80
phytotoxicity rating ECHCG ([2]; 63 g ai/ha): 50
phytotoxicity rating ECHCG ([2]; 250 g ai/ha): 90
phytotoxicity rating CHEAL ([3]; 63 g ai/ha): 90
phytotoxicity rating CHEAL ([3]; 250 g ai/ha): 100
phytotoxicity rating DIGSA ([4]; 63 g ai/ha): 20
phytotoxicity rating DIGSA ([4]; 250 g ai/ha): 80
phytotoxicity rating AMARE ([5]; 63 g ai/ha): 100
phytotoxicity rating AMARE ([5]; 250 g ai/ha): 100
phytotoxicity rating CASOB ([6]; 63 g ai/ha): 70
phytotoxicity rating CASOB ([6]; 250 g ai/ha): 100
phytotoxicity rating SETVI ([7]; 63 g ai/ha): 40
phytotoxicity rating SETVI ([7]; 250 g ai/ha): 60
phytotoxicity rating IPOHE ([8]; 63 g ai/ha): 100
phytotoxicity rating IPOHE ([8]; 250 g ai/ha): 100
phytotoxicity rating ABUTH ([9]; 63 g ai/ha): 100
phytotoxicity rating ABUTH ([9]; 250 g ai/ha): 100
Pre-emerge phytotoxicity rating (0-100), crop damage, CORN ([10]; 63 g ai/ha): 0
Pre-emerge phytotoxicity rating (0-100), crop damage, CORN ([10]; 250 g ai/ha): 90
Pre-emerge phytotoxicity rating (0-100), crop damage, RICE ([11]; 63 g ai/ha): 70
Pre-emerge phytotoxicity rating (0-100), crop damage, RICE ([11]; 250 g ai/ha): 90
Pre-emerge Herbicidal Activity, phytotoxicity rating (0-100), SORHA ([12]; 63 g ai/ha): 90
Pre-emerge Herbicidal Activity, phytotoxicity rating (0-100), SORHA ([12]; 250 g ai/ha): 90
Pre-emerge Herbicidal Activity, phytotoxicity rating (0-100), ECHCG ([13]; 63 g ai/ha): 70
Pre-emerge Herbicidal Activity, phytotoxicity rating (0-100), ECHCG ([13]; 250 g ai/ha): 100
Pre-emerge Herbicidal Activity, phytotoxicity rating (0-100), CHEAL ([14]; 63 g ai/ha): 100
Pre-emerge Herbicidal Activity, phytotoxicity rating (0-100), CHEAL ([14]; 250 g ai/ha): 100
Pre-emerge Herbicidal Activity, phytotoxicity rating (0-100), DIGSA ([15]; 63 g ai/ha): 100
Pre-emerge Herbicidal Activity, phytotoxicity rating (0-100), DIGSA ([15]; 250 g ai/ha): 100
Pre-emerge Herbicidal Activity, phytotoxicity rating (0-100), CASOB ([16]; 63 g ai/ha): 90
Pre-emerge Herbicidal Activity, phytotoxicity rating (0-100), CASOB ([16]; 250 g ai/ha): 100
Pre-emerge Herbicidal Activity, phytotoxicity rating (0-100), SETVI ([17]; 63 g ai/ha): 100
Pre-emerge Herbicidal Activity, phytotoxicity rating (0-100), SETVI ([17]; 250 g ai/ha): 100
Pre-emerge Herbicidal Activity, phytotoxicity rating (0-100), IPOHE ([18]; 63 g ai/ha): 60
Pre-emerge Herbicidal Activity, phytotoxicity rating (0-100), IPOHE ([18]; 250 g ai/ha): 100
Pre-emerge Herbicidal Activity, phytotoxicity rating (0-100), ABUTH ([19]; 63 g ai/ha): 100
Pre-emerge Herbicidal Activity, phytotoxicity rating (0-100), ABUTH ([19]; 250 g ai/ha): 100
Pre-emerge Herbicidal Activity, phytotoxicity rating (0-100), AMARE ([20]; 63 g ai/ha): 100
Pre-emerge Herbicidal Activity, phytotoxicity rating (0-100), AMARE ([20]; 250 g ai/ha): 100
phytotoxicity rating CORN ([21]; 63 g ai/ha): 30
phytotoxicity rating CORN ([21]; 250 g ai/ha): 90
phytotoxicity rating RICE ([22]; 63 g ai/ha): 60
phytotoxicity rating RICE ([22]; 250 g ai/ha): 90

COc1c(Cl)cc(F)c(-n2c(=O)cc(C(F)(F)F)n(C)c2=O)c1NC(=O)C=Cc1ccccc1Cl [2-82]
phytotoxicity rating SORHA ([1]; 63 g ai/ha): 0
phytotoxicity rating SORHA ([1]; 250 g ai/ha): 30
phytotoxicity rating ECHCG ([2]; 63 g ai/ha): 20
phytotoxicity rating ECHCG ([2]; 250 g ai/ha): 30
phytotoxicity rating CHEAL ([3]; 63 g ai/ha): 90
phytotoxicity rating CHEAL ([3]; 250 g ai/ha): 90
phytotoxicity rating DIGSA ([4]; 63 g ai/ha): 0
phytotoxicity rating DIGSA ([4]; 250 g ai/ha): 30
phytotoxicity rating AMARE ([5]; 63 g ai/ha): 100
phytotoxicity rating AMARE ([5]; 250 g ai/ha): 100
phytotoxicity rating CASOB ([6]; 63 g ai/ha): 100
phytotoxicity rating CASOB ([6]; 250 g ai/ha): 100
phytotoxicity rating SETVI ([7]; 63 g ai/ha): 40
phytotoxicity rating SETVI ([7]; 250 g ai/ha): 50
phytotoxicity rating IPOHE ([8]; 63 g ai/ha): 60
phytotoxicity rating IPOHE ([8]; 250 g ai/ha): 90
phytotoxicity rating ABUTH ([9]; 63 g ai/ha): 100
phytotoxicity rating ABUTH ([9]; 250 g ai/ha): 100
Pre-emerge phytotoxicity rating (0-100), crop damage, CORN ([10]; 63 g ai/ha): 0
Pre-emerge phytotoxicity rating (0-100), crop damage, CORN ([10]; 250 g ai/ha): 0
Pre-emerge phytotoxicity rating (0-100), crop damage, RICE ([11]; 63 g ai/ha): 10
Pre-emerge phytotoxicity rating (0-100), crop damage, RICE ([11]; 250 g ai/ha): 10
Pre-emerge Herbicidal Activity, phytotoxicity rating (0-100), SORHA ([12]; 63 g ai/ha): 0
Pre-emerge Herbicidal Activity, phytotoxicity rating (0-100), SORHA ([12]; 250 g ai/ha): 20
Pre-emerge Herbicidal Activity, phytotoxicity rating (0-100), ECHCG ([13]; 63 g ai/ha): 0
Pre-emerge Herbicidal Activity, phytotoxicity rating (0-100), ECHCG ([13]; 250 g ai/ha): 0
Pre-emerge Herbicidal Activity, phytotoxicity rating (0-100), CHEAL ([14]; 63 g ai/ha): 100
Pre-emerge Herbicidal Activity, phytotoxicity rating (0-100), CHEAL ([14]; 250 g ai/ha): 100
Pre-emerge Herbicidal Activity, phytotoxicity rating (0-100), DIGSA ([15]; 63 g ai/ha): 30
Pre-emerge Herbicidal Activity, phytotoxicity rating (0-100), DIGSA ([15]; 250 g ai/ha): 80
Pre-emerge Herbicidal Activity, phytotoxicity rating (0-100), CASOB ([16]; 63 g ai/ha): 80
Pre-emerge Herbicidal Activity, phytotoxicity rating (0-100), CASOB ([16]; 250 g ai/ha): 100
Pre-emerge Herbicidal Activity, phytotoxicity rating (0-100), SETVI ([17]; 63 g ai/ha): 80
Pre-emerge Herbicidal Activity, phytotoxicity rating (0-100), SETVI ([17]; 250 g ai/ha): 100
Pre-emerge Herbicidal Activity, phytotoxicity rating (0-100), IPOHE ([18]; 63 g ai/ha): 0
Pre-emerge Herbicidal Activity, phytotoxicity rating (0-100), IPOHE ([18]; 250 g ai/ha): 0
Pre-emerge Herbicidal Activity, phytotoxicity rating (0-100), ABUTH ([19]; 63 g ai/ha): 100
Pre-emerge Herbicidal Activity, phytotoxicity rating (0-100), ABUTH ([19]; 250 g ai/ha): 100
Pre-emerge Herbicidal Activity, phytotoxicity rating (0-100), AMARE ([20]; 63 g ai/ha): 100
Pre-emerge Herbicidal Activity, phytotoxicity rating (0-100), AMARE ([20]; 250 g ai/ha): 100
phytotoxicity rating CORN ([21]; 63 g ai/ha): 10
phytotoxicity rating CORN ([21]; 250 g ai/ha): 25
phytotoxicity rating RICE ([22]; 63 g ai/ha): 50
phytotoxicity rating RICE ([22]; 250 g ai/ha): 40
